Test results taken from patent publication US20080221086A1, “Novel Inhibitors of Glutaminyl Cyclase” (PROBIODRUG AG, priority 2006, published 2008).

Molecular target: hQC (Homo sapiens, UniProt Q16769)
Test: Fluorometric assay of glutaminyl cyclase (QC) inhibition, H-Gln-βNA or H-Gln-AMC substrate
Assay type: biochemical
Conditions: read-out: IC50
Method: All compounds were immediately tested regarding their activity as hQC inhibitors.
The purity of the compounds was determined by HPLC-MS. The IC50 value against hQC was measured using the fluorescent assay.
All measurements were performed with a BioAssay Reader HTS-7000Plus for microplates (Perkin Elmer) at 30° C. QC activity was evaluated fluorometrically using H-Gln-βNA. The samples consisted of 0.2 mM fluorogenic substrate, 0.25 U pyroglutamyl aminopeptidase (Unizyme, Hørsholm, Denmark) in 0.2 M Tris/HCl, pH 8.0 containing 20 mM EDTA and an appropriately diluted aliquot of QC in a final volume of 250 μl. Excitation/emission wavelengths were 320/410 nm. The assay reactions were initiated by addition of glutaminyl cyclase. QC activity was determined from a standard curve of β-naphthylamine under assay conditions. One unit is defined as the amount of QC catalyzing the formation of 1 μmol pGlu-βNA from H-Gln-βNA per minute under the described conditions.
In a second fluorometric assay, QC was activity was determined using H-Gln-AMC as substrate. Reactions were carried out at 30° C. utilizing the NOVOStar reader for microplates (BMG labtechnologies). The samples consisted of varying concentrations of the fluorogenic substrate, 0.1 U pyroglutamyl aminopeptidase (Qiagen) in 0.05 M Tris/HCl, pH 8.0 containing 5 mM EDTA and an appropriately diluted aliquot of QC in a final volume of 250 μl. Excitation/emission wavelengths were 380/460 nm. The assay reactions were initiated by addition of glutaminyl cyclase. QC activity was determined from a standard curve of 7-amino-4-methylcoumarin under assay conditions. The kinetic data were evaluated using GraFit software.
For inhibitor testing, the sample composition was the same as described above, except of the putative inhibitory compound added. For a rapid test of QC-inhibition, samples contained 4 mM of the respective inhibitor and a substrate concentration at 1 KM. For detailed investigations of the inhibition and determination of Ki-values, influence of the inhibitor on the auxiliary enzymes was investigated first. In every case, there was no influence on either enzyme detected, thus enabling the reliable determination of the QC inhibition. The inhibitory constant was evaluated by fitting the set of progress curves to the general equation for competitive inhibition using GraFit software.

Sequence of hQC (Q16769 29-361): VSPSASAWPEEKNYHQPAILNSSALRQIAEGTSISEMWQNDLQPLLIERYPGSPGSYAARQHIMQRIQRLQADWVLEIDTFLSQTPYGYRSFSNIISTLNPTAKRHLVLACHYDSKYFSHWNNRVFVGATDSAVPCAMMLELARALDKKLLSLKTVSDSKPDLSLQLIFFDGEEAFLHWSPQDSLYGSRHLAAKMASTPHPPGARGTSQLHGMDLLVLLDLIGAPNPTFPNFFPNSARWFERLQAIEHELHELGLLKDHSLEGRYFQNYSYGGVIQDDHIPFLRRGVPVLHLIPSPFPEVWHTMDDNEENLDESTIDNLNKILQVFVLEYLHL

SMILES	IC50 [µM]
O=C(C/N=C1/NC(=O)N(CCCn2ccnc2)C1c1ccccc1)N1CCc2ccccc2C1 (stereo not shown) [Compound 66, 4-2-(3,4-Dihydro-1H-isoquinolin-2-yl)-2-oxo-ethylimino-1-(3-imidazol-1-yl-propyl)-5-phenyl-imidazolidin-2-one]	4
O=C(C/N=C1/NC(=O)N(CCCn2ccnc2)C1C1CCC=CO1)N1CCc2ccccc2C1 (stereo not shown) [Compound 67, 4-2-(3,4-Dihydro-1H-isoquinolin-2-yl)-2-oxo-ethylimino-5-(3,4-dihydro-2H-pyran-2-yl)-1-(3-imidazol-1-yl-propyl)-imidazolidin-2-one]	4.9
O=C(C/N=C1\NC(=O)N(CCCn2ccnc2)C1c1cccc(F)c1F)N1CCc2ccccc2C1 (stereo not shown) [Compound 68, 5-(2,3-Difluoro-phenyl)-4-2-(3,4-dihydro-1H-isoquinolin-2-yl)-2-oxo-ethylimino-1-(3-imidazol-1-yl-propyl)-imidazolidin-2-one]	4
O=C(C/N=C1/NC(=O)N(CCCn2ccnc2)C1c1cc(F)cc(F)c1)N1CCc2ccccc2C1 (stereo not shown) [Compound 69, 5-(3,5-Difluoro-phenyl)-4-2-(3,4-dihydro-1H-isoquinolin-2-yl)-2-oxo-ethylimino-1-(3-imidazol-1-yl-propyl)-imidazolidin-2-one]	4.9
O=C(C/N=C1/NC(=O)N(CCCn2ccnc2)C1c1ccc(Cl)c(F)c1)N1CCc2ccccc2C1 (stereo not shown) [Compound 70, 5-(4-Chloro-3-fluoro-phenyl)-4-2-(3,4-dihydro-1H-isoquinolin-2-yl)-2-oxo-ethylimino-1-(3-imidazol-1-yl-propyl)-imidazolidin-2-one]	3.1
O=C(C/N=C1\NC(=O)N(CCCn2ccnc2)C1c1ccccc1Cl)N1CCc2ccccc2C1 (stereo not shown) [Compound 71, 5-(2-Chloro-phenyl)-4-2-(3,4-dihydro-1H-isoquinolin-2-yl)-2-oxo-ethylimino-1-(3-imidazol-1-yl-propyl)-imidazolidin-2-one]	4
O=C(C/N=C1/NC(=O)N(CCCn2ccnc2)C1CO)N1CCc2ccccc2C1 (stereo not shown) [Compound 72, 4-2-(3,4-Dihydro-1H-isoquinolin-2-yl)-2-oxo-ethylimino-5-hydroxymethyl-1-(3-imidazol-1-yl-propyl)-imidazolidin-2-one]	8.5
O=C(C/N=C1/NC(=O)N(CCCn2ccnc2)C1c1ccco1)N1CCc2ccccc2C1 (stereo not shown) [Compound 73, 4-2-(3,4-Dihydro-1H-isoquinolin-2-yl)-2-oxo-ethylimino-5-furan-2-yl-1-(3-imidazol-1-yl-propyl)-imidazolidin-2-one]	6.7
CCCCC1/C(=N\CC(=O)N2CCc3ccccc3C2)NC(=O)N1CCCn1ccnc1 (stereo not shown) [Compound 74, 5-Butyl-4-2-(3,4-dihydro-1H-isoquinolin-2-yl)-2-oxo-ethylimino-1-(3-imidazol-1-yl-propyl)-imidazolidin-2-one]	7.6
CCC1/C(=N\CC(=O)N2CCc3ccccc3C2)NC(=O)N1CCCn1ccnc1 (stereo not shown) [Compound 75, 4-2-(3,4-Dihydro-1H-isoquinolin-2-yl)-2-oxo-ethylimino-5-ethyl-1-(3-imidazol-1-yl-propyl)-imidazolidin-2-one]	7.6
O=C(C/N=C1\NC(=O)N(CCCn2ccnc2)C1c1ccccc1F)N1CCc2ccccc2C1 (stereo not shown) [Compound 76, 4-2-(3,4-Dihydro-1H-isoquinolin-2-yl)-2-oxo-ethylimino-5-(2-fluoro-phenyl)-1-(3-imidazol-1-yl-propyl)-imidazolidin-2-one]	5.8
O=C(C/N=C1/NC(=O)N(CCCn2ccnc2)C1c1cccc(F)c1)N1CCc2ccccc2C1 (stereo not shown) [Compound 77, 4-2-(3,4-Dihydro-1H-isoquinolin-2-yl)-2-oxo-ethylimino-5-(3-fluoro-phenyl)-1-(3-imidazol-1-yl-propyl)-imidazolidin-2-one]	4
O=C(C/N=C1/NC(=O)N(CCCn2ccnc2)C1c1ccc(F)cc1)N1CCc2ccccc2C1 (stereo not shown) [Compound 78, 4-2-(3,4-Dihydro-1H-isoquinolin-2-yl)-2-oxo-ethylimino-5-(4-fluoro-phenyl)-1-(3-imidazol-1-yl-propyl)-imidazolidin-2-one]	3.1
O=C(C/N=C1/NC(=O)N(CCCn2ccnc2)C1c1ccc(O)cc1)N1CCc2ccccc2C1 (stereo not shown) [Compound 79, 4-2-(3,4-Dihydro-1H-isoquinolin-2-yl)-2-oxo-ethylimino-5-(4-hydroxy-phenyl)-1-(3-imidazol-1-yl-propyl)-imidazolidin-2-one]	3.1
CC1/C(=N/C(c2ccccc2)c2ccccc2)NC(=O)N1CCCn1ccnc1 (stereo not shown) [Compound 80, 4-Benzhydrylimino-1-(3-imidazol-1-yl-propyl)-5-methyl-imidazolidin-2-one]	9.4
O=C1N/C(=N\C(c2ccccc2)c2ccccc2)C(c2ccccc2)N1CCCn1ccnc1 (stereo not shown) [Compound 81, 4-Benzhydrylimino-1-(3-imidazol-1-yl-propyl)-5-phenyl-imidazolidin-2-one]	5.8

SMILES	IC50 [µM]
O=C1N/C(=N\C(c2ccccc2)c2ccccc2)C(C2CCC=CO2)N1CCCn1ccnc1 (stereo not shown) [Compound 82, 4-Benzhydrylimino-5-(3,4-dihydro-2H-pyran-2-yl)-1-(3-imidazol-1-yl-propyl)-imidazolidin-2-one]	9.4
O=C1N/C(=N\C(c2ccccc2)c2ccccc2)C(c2cccc(F)c2F)N1CCCn1ccnc1 (stereo not shown) [Compound 83, 4-Benzhydrylimino-5-(2,3-difluoro-phenyl)-1-(3-imidazol-1-yl-propyl)-imidazolidin-2-one]	7.6
O=C1N/C(=N\C(c2ccccc2)c2ccccc2)C(c2cc(F)cc(F)c2)N1CCCn1ccnc1 (stereo not shown) [Compound 84, 4-Benzhydrylimino-5-(3,5-difluoro-phenyl)-1-(3-imidazol-1-yl-propyl)-imidazolidin-2-one]	3.1
O=C1N/C(=N\C(c2ccccc2)c2ccccc2)C(CO)N1CCCn1ccnc1 (stereo not shown) [Compound 85, 4-Benzhydrylimino-5-hydroxymethyl-1-(3-imidazol-1-yl-propyl)-imidazolidin-2-one]	6.7
CCCCC1/C(=N/C(c2ccccc2)c2ccccc2)NC(=O)N1CCCn1ccnc1 (stereo not shown) [Compound 86, 4-Benzhydrylimino-5-butyl-1-(3-imidazol-1-yl-propyl)-imidazolidin-2-one]	5.8
O=C1N/C(=N\C(c2ccccc2)c2ccccc2)C(c2ccccc2F)N1CCCn1ccnc1 (stereo not shown) [Compound 87, 4-Benzhydrylimino-5-(2-fluoro-phenyl)-1-(3-imidazol-1-yl-propyl)-imidazolidin-2-one]	4
O=C1N/C(=N\C(c2ccccc2)c2ccccc2)C(c2cccc(F)c2)N1CCCn1ccnc1 (stereo not shown) [Compound 88, 4-Benzhydrylimino-5-(3-fluoro-phenyl)-1-(3-imidazol-1-yl-propyl)-imidazolidin-2-one]	5.8
O=C1N/C(=N\C(c2ccccc2)c2ccccc2)C(c2ccc(O)cc2)N1CCCn1ccnc1 (stereo not shown) [Compound 89, 4-Benzhydrylimino-5-(4-hydroxy-phenyl)-1-(3-imidazol-1-yl-propyl)-imidazolidin-2-one]	9.4
O=C1N/C(=N/Cc2cccnc2)C(c2cc(F)cc(F)c2)N1CCCn1ccnc1 (stereo not shown) [Compound 90, 5-(3,5-Difluoro-phenyl)-1-(3-imidazol-1-yl-propyl)-4-pyridin-3-ylmethylimino-imidazolidin-2-one]	8.5
O=C1N/C(=N/Cc2cccnc2)C(c2cccc(F)c2)N1CCCn1ccnc1 (stereo not shown) [Compound 91, 5-(3-Fluoro-phenyl)-1-(3-imidazol-1-yl-propyl)-4-pyridin-3-ylmethylimino-imidazolidin-2-one]	8.5
O=C1N/C(=N/Cc2ccccc2)C(c2ccccc2)N1CCCn1ccnc1 (stereo not shown) [Compound 92, 4-Benzylimino-1-(3-imidazol-1-yl-propyl)-5-phenyl-imidazolidin-2-one]	8.5
O=C1N/C(=N/Cc2ccccc2)C(c2ccc[nH]2)N1CCCn1ccnc1 (stereo not shown) [Compound 93, 4-Benzylimino-1-(3-imidazol-1-yl-propyl)-5-(1H-pyrrol-2-yl)-imidazolidin-2-one]	9.4
O=C1N/C(=N\Cc2ccccc2)C(c2cccc(F)c2F)N1CCCn1ccnc1 (stereo not shown) [Compound 94, 4-Benzylimino-5-(2,3-difluoro-phenyl)-1-(3-imidazol-1-yl-propyl)-imidazolidin-2-one]	5.8
O=C1N/C(=N/Cc2ccccc2)C(c2cc(F)cc(F)c2)N1CCCn1ccnc1 (stereo not shown) [Compound 95, 4-Benzylimino-5-(3,5-difluoro-phenyl)-1-(3-imidazol-1-yl-propyl)-imidazolidin-2-one]	5.8
O=C1N/C(=N/Cc2ccccc2)C(c2ccc(Cl)c(F)c2)N1CCCn1ccnc1 (stereo not shown) [Compound 96, 4-Benzylimino-5-(4-chloro-3-fluoro-phenyl)-1-(3-imidazol-1-yl-propyl)-imidazolidin-2-one]	6.7
